{"source": "patent US9714275B2", "about": "“Cancer antigen” (Cadila Pharmaceuticals Ltd., priority 2011, dated 2017)", "type_in_all_cases": "cell-based", "key": {"[1]": {"test_system": "Lung cancer cell lines (A549 and L132)", "test": "Protein profile (SDS PAGE and Western blot) of Mw treated lung cancer cell lines", "conditions": "Mw/cells 1:100, 4 hours at 37° C.; vs untreated cell profile", "procedure": "Different Lung cancer cell lines (A549 and L132) were treated with Mw/cells in the ratio of 1:100. Each treatment group contained 4×10E6 cells. Cells treated with Mw were incubated for 4 hours at 37° C. After treatment, cells were pelleted and supernatant was discarded. Cells were then resuspended in DPBS (400 μl). Cells were then sonicated for 15 minutes with pulse of 10 seconds on and 20 seconds off. The lysate obtained was estimated for the protein content using BCA Protein assay and protein was normalized to load 30 μg protein in each well. This was followed by 12% reducing SDS PAGE and Western blot analysis to obtain protein profile and humoral response. Thus obtained profile was compared with untreated cell protein profile."}, "Mia-Pa-Ca-2 cells": {"test_system": "Mia-Pa-Ca-2 cells", "test": "Protein profile (SDS-PAGE) of treated pancreatic cancer cells", "conditions": "Mw 1:500, cisplatin 5 μg/ml, paclitaxel 150 μg/ml, gemcitabine 800 nm; serum free media, 37° C.; vs untreated cell profile", "procedure": "(§1) The Mia-Pa-Ca-2 cells were treated with Mw Cells in ratio 1:500, cisplatin at 5 μg/ml, paclitaxel at 150 μg/ml, and gemcitabine at 800 nm. The treatment was carried out in serum free media at 37° C. The cells were lysed and SDS-PAGE was run to obtain proteomic profile. Thus obtained profiles were overlapped with the untreated cell protein profile. The protein profile was noticed for each treatment. The differently expressed protein was identified at 45 KDa.\n45 KDa protein is commonly over expressed protein when pancreatic cancer cells are treated with Mw, cisplatin, paclitaxel, gemcitabine, or combination there of."}, "B16 melanoma cells": {"test_system": "B16 melanoma cells", "test": "Protein profile (SDS-PAGE) of treated melanoma cells", "conditions": "cisplatin 5 μg/ml, paclitaxel 150 μg/ml, gemcitabine 800 nm; serum free media, 37° C.; vs untreated cell profile", "procedure": "as §1, with “B16 melanoma” for “Mia-Pa-Ca-2”, “with,” for “with Mw Cells in ratio 1:500,”, “μg/ml,and” for “μg/ml, and”, “36” for “45”\n36 KDa protein is commonly expressed protein when melanoma cells are treated with, cisplatin, paclitaxel, gemcitabine, or combination there of."}}}
{"compound": "Mycobacterium w [Mw]", "values": [{"measurement": "common protein in both treated cell lines", "setting": "[1]", "result": 43, "unit": "KDa"}, {"measurement": "commonly over expressed protein after treatment (SDS-PAGE band)", "setting": "Mia-Pa-Ca-2 cells", "result": 45, "unit": "KDa"}]}
{"compound": "CC(=O)O[C@H]1C(=O)[C@@]2(C)[C@H]([C@H](OC(=O)c3ccccc3)[C@]3(O)C[C@H](OC(=O)[C@H](O)[C@@H](NC(=O)c4ccccc4)c4ccccc4)C(C)=C1C3(C)C)[C@]1(OC(C)=O)CO[C@@H]1C[C@@H]2O", "note": "[paclitaxel]", "values": [{"measurement": "commonly expressed protein after treatment (SDS-PAGE band)", "setting": "B16 melanoma cells", "result": 36, "unit": "KDa"}, {"measurement": "commonly over expressed protein after treatment (SDS-PAGE band)", "setting": "Mia-Pa-Ca-2 cells", "result": 45, "unit": "KDa"}]}
{"compound": "N.N.[Cl][Pt][Cl]", "note": "[cisplatin]", "values": [{"measurement": "commonly expressed protein after treatment (SDS-PAGE band)", "setting": "B16 melanoma cells", "result": 36, "unit": "KDa"}, {"measurement": "commonly over expressed protein after treatment (SDS-PAGE band)", "setting": "Mia-Pa-Ca-2 cells", "result": 45, "unit": "KDa"}]}
{"compound": "Nc1ccn([C@@H]2O[C@H](CO)[C@@H](O)C2(F)F)c(=O)n1", "note": "[gemcitabine]", "values": [{"measurement": "commonly expressed protein after treatment (SDS-PAGE band)", "setting": "B16 melanoma cells", "result": 36, "unit": "KDa"}, {"measurement": "commonly over expressed protein after treatment (SDS-PAGE band)", "setting": "Mia-Pa-Ca-2 cells", "result": 45, "unit": "KDa"}]}
